Reference: patent US6756354B2, “Therapeutic compositions containing oligo (ethylene glycol)-terminated 1,2-dithiolanes and their conjugates” (priority 2001, dated 2004)
Where a name gives a salt, the structure may show the parent alone.

Key:
[1] = oral; presystemic glucuronide conjugation; cited from earlier work
[2] = mouse

Compound	absolute bioavailability [1]	oral bioavailability (concluded from glucose reduction) ([2]; in vivo, po)	serum glucose ([2]; oral gavage, 10 mg/mL solution, 10 mL/kg dose)
O=C(c1ccc(OCCN2CCCCC2)cc1)c1c(-c2ccc(O)cc2)sc2cc(O)ccc12 [Raloxifene, [6-hydroxy-2-(4-hydroixyphenyl)benzo[b]thien-3-yl]-4-[2-(1-piperidinyl)ethoxy]phenyl]methanone hydrochloride]	about 2%		
OEG-terminated 1,2-dithiolane-conjugated insulin: insulin conjugated at lysine-29 of the beta-chain with NHS-ester of carboxyl-OEG-terminated thioctamide (x is 8)		orally bioavailable	reduction
